# Experimental data taken from PubChem BioAssay (NCI).
#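 Each compound was tested at five concentrations against cells in 96-well plates for 48 hours. Abbreviation: GI50, concentration required for 50% inhibition of growth. TGI denotes the concentration required for complete inhibition of growth.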
# Assays:
# Assay in all cases: growth of human tumour cells (NCI), 48 h
# MCF7 breast = test system: MCF7 breast
# NCI-H226 lung = test system: NCI-H226 lung
# UACC-257 melanoma = test system: UACC-257 melanoma
# UO-31 renal = test system: UO-31 renal
# ACHN renal = test system: ACHN renal
# 786-0 renal = test system: 786-0 renal
# SW-620 colon = test system: SW-620 colon
# HOP-62 NSCLC = test system: HOP-62 NSCLC
# HCC-2998 colon = test system: HCC-2998 colon
# SR leukemia = test system: SR leukemia
Compound,GI50 (MCF7 breast),TGI (MCF7 breast),GI50 (NCI-H226 lung),TGI (NCI-H226 lung),GI50 (UACC-257 melanoma),TGI (UACC-257 melanoma),GI50 (UO-31 renal),TGI (UO-31 renal),GI50 (ACHN renal),TGI (ACHN renal),GI50 (786-0 renal),TGI (786-0 renal),GI50 (SW-620 colon),TGI (SW-620 colon),GI50 (HOP-62 NSCLC),TGI (HOP-62 NSCLC),GI50 (HCC-2998 colon),TGI (HCC-2998 colon),GI50 (SR leukemia),TGI (SR leukemia)
COc1cccc(-c2nn(-c3ccccc3)cc2-c2ccnc(NCCCNS(=O)(=O)c3ccc(C(F)(F)F)cc3)c2)c1,3.87 µM,> 100 µM,8.75 µM,> 100 µM,6.3 µM,55.9 µM,2.9 µM,> 100 µM,4.8 µM,> 100 µM,4.6 µM,> 100 µM,11.2 µM,> 100 µM,13.8 µM,> 100 µM,5.22 µM,> 100 µM,1.67 µM,4.84 µM
CC(=O)/C=C/c1ccc(N(CCO)Cc2ccc(C(C)(C)C)cc2)cc1,26.5 µM,118 µM,73.3 µM,248 µM,78.1 µM,217 µM,22.5 µM,122 µM,50.1 µM,170 µM,51.3 µM,184 µM,119 µM,259 µM,104 µM,231 µM,152 µM,321 µM,39.1 µM,169 µM
CCCCC[C@H]1C/C=C2/C(=O)C(Cl)=C[C@@H]2C/C=C\CCCC(=O)O1,0.0886 µM,2.7 µM,0.544 µM,1.5 µM,0.513 µM,1.41 µM,0.379 µM,0.717 µM,0.361 µM,0.704 µM,0.47 µM,0.888 µM,0.181 µM,1.3 µM,0.53 µM,1.15 µM,0.475 µM,0.855 µM,0.122 µM,2.68 µM
CCC(C)C(=O)OC1CCC=C2C=CC(C)C(CCC3CC(O)CC(=O)O3)C21 (stereo unspecified),–,> 72.2 µM,–,> 100 µM,–,> 100 µM,–,> 100 µM,–,> 88 µM,–,> 65.9 µM,–,> 100 µM,–,> 100 µM,–,> 100 µM,–,> 51 µM
C=C1C(=O)O[C@H]2[C@H]1CC/C(COC(=O)/C=C\C(=O)NCc1ccc(Cn3c(=O)sn(-c4ccc(Cl)cc4)c3=O)cc1)=C\CC[C@@]1(C)O[C@@H]21,0.36 µM,1.41 µM,1.24 µM,4.28 µM,0.8 µM,1.72 µM,0.515 µM,1.1 µM,0.404 µM,1.03 µM,0.658 µM,1.39 µM,0.242 µM,0.915 µM,2.12 µM,7.63 µM,0.896 µM,1.7 µM,0.24 µM,12.3 µM
CCSCCCC(=O)O,–,> 100 µM,–,> 100 µM,–,> 100 µM,–,> 100 µM,–,> 100 µM,–,> 100 µM,–,> 100 µM,–,> 100 µM,–,> 100 µM,–,> 100 µM
CC(C)(C)OC(=O)N1Cc2cc3ccccc3nc2C1CO (stereo unspecified),> 100 µM,> 100 µM,> 100 µM,> 100 µM,> 100 µM,> 100 µM,> 100 µM,> 100 µM,> 100 µM,> 100 µM,> 100 µM,> 100 µM,> 100 µM,> 100 µM,> 100 µM,> 100 µM,> 100 µM,> 100 µM,> 100 µM,> 100 µM
COc1ccc2c(c1)C(=O)c1c-2n(CCCCl)c(=O)c2cc(N)ccc12,34.8 µM,> 100 µM,> 80.7 µM,> 100 µM,> 100 µM,> 100 µM,> 100 µM,> 100 µM,98.4 µM,> 100 µM,> 63.7 µM,> 100 µM,> 68.1 µM,> 100 µM,> 100 µM,> 100 µM,> 100 µM,> 100 µM,> 62.8 µM,> 100 µM
c1ccc2c(c1)[nH]c1c3ccccc3sc21,–,> 100 µM,–,> 100 µM,–,> 100 µM,–,> 100 µM,–,> 100 µM,–,> 100 µM,–,> 100 µM,–,> 100 µM,–,> 100 µM,–,> 100 µM
CCC(=C(c1ccc(OCCN2CCCC2)cc1)c1ccc(OCCN2CCCC2)cc1)c1ccc(Cl)cc1,0.287 µM,0.822 µM,0.735 µM,1.63 µM,0.595 µM,1.18 µM,0.5 µM,0.965 µM,0.585 µM,1.06 µM,0.591 µM,1.1 µM,0.554 µM,1.09 µM,0.688 µM,1.58 µM,0.566 µM,1.07 µM,0.347 µM,1.09 µM
O=C1c2ccccc2C(=O)c2sc(Nc3ccc([N+](=O)[O-])cc3)nc21,–,31 µM,–,35.9 µM,–,11.7 µM,–,8.94 µM,–,7.55 µM,–,12.3 µM,–,8.48 µM,–,27.1 µM,–,30.1 µM,–,7.97 µM
CCN(CC)CCCNc1cc(OC)c(OC)c2cccnc12,1.71 µM,5.47 µM,15.2 µM,37.7 µM,4.55 µM,22.4 µM,14.1 µM,> 100 µM,2.61 µM,46.3 µM,12 µM,31.3 µM,1.8 µM,20.2 µM,2.04 µM,21.4 µM,11.9 µM,25.7 µM,1.22 µM,> 100 µM
NC(=O)c1ncn2c(=O)n(CCCl)nnc12,68.3 µM,379 µM,–,425 µM,–,391 µM,–,521 µM,> 71.2 µM,385 µM,46.4 µM,195 µM,51.2 µM,822 µM,53.4 µM,139 µM,–,366 µM,57.9 µM,801 µM
